Where two headings read alike, the source gives them in different places.
How the values were obtained:
[1] = test system: MAPK phosphorylation; experiment: MAPK cell-based phosphorylation assay (ELISA or Western), PANC-1; settings: Homo sapiens, PANC-1
Description: Cell lines: Tumor-derived pancreatic cancer cell line PANC-1 was purchased from ATCC and were and grown in DMEM-High Glucose supplemented with penicillin (100 U/mL), streptomycin (100 μg/mL), and 10% heat-inactivated FBS at 37° C. in a humidified incubator with 5% CO2.
Method: Cells were plated at 7500 cells/well density in a 96-well plate, allowed 3 hours to adhere to the plate, then starved in DMEM plus 0.5% FBS overnight. The small molecules to be tested were added to the cells in the final concentration of 10 μM in the presence of 0.3% DMSO for 6 hours incubation at 37° C. For IC50 value determination, serial dilutions of compounds were added to cells under the same conditions. Next, cells were stimulated with 1.5 ng/mL EGF for 15 minutes followed by cell fixation with 4% formaldehyde in PBS at room temperature for 20 minutes. Cell-direct ELISA determined phosphorylation level of MAPK.
Cell-direct ELISA: For each well, cells were permeabilized with 0.1% PBS-Triton X-100, quenched with 0.06% H2O2 in 0.1% PBS-Triton X-100, and probed with anti-phospho-MAPK antibodies (R&D Systems) followed by HRP-conjugated secondary antibody (Jackson Immunoresearch, West Grove, PA). Next, a 50 μM solution of the fluorescent substrate AmpliFlu Red (Sigma) was added and incubated at RT for 20 minutes. At the end of the incubation time, phosphorylation level of MAPK was determined by measuring fluorescence at 595 nm using SpectraMax M3 plate reader (Molecular Devices).
(§1) Cell lines: Human NSCLC cells NCI-H1975 and NCI-H1299, and tumor-derived pancreatic cancer cell lines Panc-1, MIA-PaCa-2, and BxPC3, were all purchased from American Type Culture Collection and grown in complete RPMI medium (BxPC3, NCI-H1975 and NCI-H1299) or DMEM-High Glucose (Panc1 and MIA-PaCa-2), supplemented with penicillin (100 U/mL), streptomycin (100 μg/mL), and 10% heat-inactivated FBS at 37° C. in a humidified incubator with 5% CO2.
Method: Cells were plated at 350000 cells/well density in a 12-well plate, allowed 3 hours to adhere to the plate, then starved in the appropriate medium in the presence of 0.5% FBS overnight. The small molecules to be tested were added to the cells in the final concentration of 10 μM in the presence of 0.3% DMSO for 6 hours incubation at 37° C. For IC50 value determination, serial dilutions of compounds were added to cells under the same conditions. Next, cells were stimulated with 1.5 ng/ml EGF for 15 minutes then cells were lysed with lysis buffer containing 1% Triton X-100, EDTA, and Halt™ Protease & Phosphatase Inhibitor Cocktail (Thermo Scientific). Protein concentration was assessed by BCA protein assay (Thermo Scientific). Phosphorylation level of MAPK was determined by western blot.
Western blot protocol: Equal amounts of protein (15-50 μg) were separated by SDS-PAGE and transferred to nitrocellulose membranes (Invitrogen by Thermo Fisher Scientific). The membrane was stained with Ponceau S Stain (Boston BioProducts) to verify uniform protein loading. Membranes were blocked with 10% milk and phosphorylation levels of MAPK were assessed by incubating overnight at 4° C. with anti-phospho-p44/42 (Thr202/Tyr204) antibody (Cell Signaling) followed by HRP-conjugated secondary antibody (Jackson Immunoresearch, West Grove, PA). Bands were incubated in Amersham ECL Prime Western Blotting Detection Reagent (GE Healthcare) and visualized using the ChemiDoc MP imaging system (Bio-Rad).

[2] = test system: MIA PaCa-2 pancreatic cancer cell line; experiment: Cell proliferation assay (DAPI); assay type: cell-based; settings: Homo sapiens; for inhibition at 10 µM: read-out: % Inhibition of cell proliferation, MIA PaCa-2 % inh
Description: as §1, with “MIA-PACA2,” for “MIA-PaCa-2,”
Method: Cells were plated at 2000 to 5000 cells/well density in 96-wells plate and cultured ON. Small molecules to be tested were added to the cells in the final concentration of 10 µM in the presence of 0.3% DMSO and 10% FBS, and incubated for 2-4 days at 37° C. in a humidified incubator with 5% CO2. For IC50 value determination, serial dilutions of compounds were added to cells under the same conditions.
Assay: At the end of the incubation period, cell cultures were fixed with a 50-50 mixture (v/v) acetone-methanol for 10 minutes at −20° C., followed by rehydration in PBS for 10 minutes at room temperature. DNA total content was determined by staining cells with DAPI (1 ug/ml) in PBS for 10 minutes at room temperature, followed by 3 washes with PBS. After staining, DAPI fluorescence was recorded (358 nm excitation/461 nm emission) with the 96-well plate reader Molecular Devices Spectramax M3; degree of small molecule-dependent proliferation inhibition was calculated from raw data.

Row | SMILES | IC50 ([2]; MIA PaCa-2 (Table 5A)) [nM] | inhibition at 10 µM ([2]; 2-4 days, MIA PaCa-2) [%] | inhibition at 10 µM ([2]; MIA PaCa-2 (Table 5A)) [%] | further results
1 | COc1cccc(-c2sc3nc(-c4nccn4C)nc(N4CCC(OC)C4)c3c2-c2ccccc2)c1F (centres unmarked) [drawing 473] |  |  |  | IC50 [1]: > 1000 nM
2 | COC1CCN(c2nc(-c3nccn3C)nc3sc(-c4cccnc4)c(-c4ccccc4)c23)C1 (centres unmarked) [drawing 571] |  | 76 to 100 |  | 
3 | COc1ccc(-c2c(-c3cccc(OC)c3F)sc3nc(-c4nccn4C)nc(N4CCC(OC)C4)c23)cc1 (centres unmarked) [drawing 584] |  | 76 to 100 |  | 
4 | COc1cccc(-c2sc3nc(-c4nccn4C)nc(N[C@@H]4CC[C@H](OC)C4)c3c2-c2ccccc2)c1F [drawing 619] | 750 to 1000 |  | 76 to 100 | 
5 | COCCNc1nc(-c2nccn2C)nc2sc(-c3cc(OC)ccc3Cl)c(-c3ccccc3)c12 [drawing 568] |  | 76 to 100 |  | IC50 ([2]; MIA PaCa-2): > 1000 nM
6 | COCC1CN(c2nc(-c3nccn3C)nc3sc(-c4cccc(OC)c4F)c(-c4ccc(OC)cc4)c23)C1 [drawing 585] |  | 76 to 100 |  | 
7 | Oc1nc(-c2cn3ccccc3n2)nc2c(-c3ccccn3)csc12 [drawing 531] |  | 76 to 100 |  | 
8 | Oc1nc(-c2ncc3ccccn23)nc2c(-c3ccccn3)csc12 [drawing 538] |  | 76 to 100 |  | 
9 | Cc1cnc(-c2nc(O)c3scc(-c4ccccn4)c3n2)n1C [drawing 536] |  | 76 to 100 |  | 
10 | COC1CCN(c2nc(-c3nccn3C)nc3sc(-c4cnc(C5CC5)o4)c(-c4ccccc4)c23)C1 (centres unmarked) [drawing 574] |  | 76 to 100 |  | 
11 | COC1CCN(c2nc(-c3nccn3C)nc3sc(-c4ccn(C)n4)c(-c4ccccc4)c23)CC1 [drawing 552] |  | 76 to 100 |  | IC50 ([2]; MIA PaCa-2): > 1000 nM
12 | COCCn1ccnc1-c1nc(O)c2scc(-c3ccccn3)c2n1 [drawing 532] |  | 76 to 100 |  | 
13 | COc1ccc(-c2c(-c3ccn(C)n3)sc3nc(-c4nccn4C)nc(N4CCC(OC)C4)c23)cc1 (centres unmarked) [drawing 555] |  | 76 to 100 |  | IC50 ([2]; MIA PaCa-2): > 1000 nM
14 | COC(=O)c1nc(-c2nccn2C)nc(O)c1O [drawing 610] |  | 0 |  | 
15 | COc1c(O)nc(-c2ccccn2)nc1Oc1ccc(C(=O)N(C)C)cc1 [drawing 614] |  |  | 1 to 25 | 
16 | Cn1ccnc1-c1nc(O)c(O)c(C(=O)NC2CCC2)n1 [drawing 609] |  | 1 |  | 
17 | Oc1nc(-c2cn(-c3ccccc3)cn2)nc2c(-c3ccccn3)csc12 [drawing 540] |  | 76 to 100 |  | 
18 | COC1CCN(c2nc(-c3nccn3C)nc3sc(-c4ccnc(N(C)C)c4)c(-c4ccccc4)c23)C1 (centres unmarked) [drawing 582] |  | 76 to 100 |  | 
19 | COc1cccc(Cn2ccnc2-c2nc(O)c3scc(-c4ccccn4)c3n2)c1 [drawing 535] |  | 76 to 100 |  | 
20 | COc1nc(-c2ccccn2)nc(Nc2cnn(C)c2)c1OC [drawing 611] |  | 1 to 25 |  | 
21 | COc1c(O)nc(-c2ccccn2)nc1Oc1cccnc1 [drawing 589] |  | 0 |  | 
22 | COCCNc1nc(-c2cn(C)cn2)nc2sc(-c3cc(OC)ccc3Cl)c(-c3ccc(OC)cc3)c12 [drawing 566] |  | 76 to 100 |  | 
23 | Oc1nc(-c2ncc3n2CCCC3)nc2c(-c3ccccn3)csc12 [drawing 530] |  | 76 to 100 |  | 
24 | COCCc1ccc(Oc2nc(-c3ccccn3)nc(O)c2OC)cc1 [drawing 592] |  | 76 to 100 |  | 
25 | CO[C@H]1CC[C@@H](Nc2nc(-c3nccn3C)nc3sc(-c4ccn(C(C)C)n4)c(-c4ccccc4)c23)C1 [drawing 475] |  |  |  | IC50 [1]: > 1000 nM
26 | COc1c(O)nc(-c2ccccn2)nc1Oc1cnn(C)c1 [drawing 587] |  | 0 |  | 

Second part, led by results:

Row | IC50 ([2]; MIA PaCa-2 (Table 5A)) [nM] | SMILES | inhibition at 10 µM ([2]; 2-4 days, MIA PaCa-2) [%] | inhibition at 10 µM ([2]; MIA PaCa-2 (Table 5A)) [%] | further results
27 | 750 to 1000 | COc1cccc(-c2sc3nc(-c4nc(C)cn4C)nc(N[C@@H]4CC[C@H](OC)C4)c3c2C)c1F [drawing 631] |  | 76 to 100 | 
28 | > 1000 | CO[C@H]1CC[C@@H](Nc2nc(-c3nccn3C)nc(C(=O)N3CCc4c(O)cccc4C3)c2C)C1 [drawing 636] |  | 1 to 25 | 
29 | > 1000 | CO[C@H]1CC[C@@H](Nc2nc(-c3nccn3C)nc3sc(C(=O)N4CCCC4)c(-c4ccccc4)c23)C1 [drawing 661] |  | 76 to 100 | 
30 | > 1000 | Cc1c(-c2ccn(C)n2)sc2nc(-c3nccn3C)nc(NCCCS(C)(=O)=O)c12 [drawing 651] |  | 0 | 
31 | > 1000 | CN(C)CCOCCNc1nc(-c2nccn2C)nc2sc(-c3ccn(C)n3)c(-c3ccccc3)c12 [drawing 642] |  | 76 to 100 | 
32 | 750 to 1000 | CO[C@H]1C[C@@H](Nc2nc(-c3nccn3C)nc3sc(-c4cnn(C)c4)c(-c4ccccc4)c23)C1 [drawing 627] |  | 76 to 100 | 
33 | > 1000 | CO[C@H]1CC[C@@H](Nc2nc(-c3nccn3C)nc3sc(C(=O)N4CCOCC4)c(-c4ccccc4)c23)C1 [drawing 662] |  | 51 to 75 | 
34 | > 1000 | COC1CCN(C(=O)c2sc3nc(-c4nccn4C)nc(N[C@H]4C[C@@H](OC)C4)c3c2-c2ccccc2)C1 (some centres unmarked) [drawing 658] |  | 26 to 50 | 
35 | > 1000 | CO[C@H]1CC[C@@H](Nc2nc(-c3nc(C)cn3C)nc3sc(-c4cccc5[nH]ncc45)c(C)c23)C1 [drawing 632] |  | 76 to 100 | 
36 | 750 to 1000 | COc1c(F)cccc1-c1sc2nc(-c3nccn3C)nc(N[C@@H]3CC[C@H](OC)C3)c2c1-c1ccccc1 [drawing 622] |  | 76 to 100 | 
37 | > 1000 | COC1CCC(Nc2nc(-c3nccn3C)nc3sc(-c4cccc5[nH]ncc45)c(C)c23)C1 (centres unmarked) [drawing 630] |  | 76 to 100 | 
38 | 750 to 1000 | CO[C@H]1CC[C@@H](Nc2nc(-c3ncc[nH]3)nc3sc(-c4ccn(C)n4)c(-c4ccccc4)c23)C1 [drawing 646] |  | 76 to 100 | 
39 | 500 to 749 | CO[C@H]1CC[C@@H](Nc2nc(-c3nccn3C)nc3sc(-c4ccn(C(C)C)n4)c(-c4ccccc4)c23)C1 [drawing 647] |  | 76 to 100 | 
40 | > 1000 | CO[C@H]1C[C@@H](Nc2nc(-c3nccn3C)nc3sccc23)C1 [drawing 638] |  | 26 to 50 | 
41 | > 1000 | Cc1c(-c2ccn(C)n2)sc2nc(-c3nccn3C)nc(NCCOC(=O)N(C)C)c12 [drawing 653] |  | 26 to 50 | 
42 | 750 to 1000 | COc1c(F)cccc1-c1sc2nc(-c3nccn3C)nc(NC3CCC(OC)C3)c2c1-c1ccccc1 (centres unmarked) [drawing 621] |  | 76 to 100 | 

From patent publication US20250296938A1, “Compounds that Interact with the Ras Superfamily for the Treatment of Cancers, Inflammatory Diseases, Rasopathies, and Fibrotic Disease” (SHY Therapeutics, LLC, priority 2018, published 2025)
